Results taken from PMC7617104 (Biochemical Journal, 2024).
“And” between values parts separate entries of the source, which are not always exact repeats. Equal values may be shown once. Read-outs that look alike come from different tables or passages of the source.

Columns and labels:
PI3Kα^WT [1] = target: T1, PI3Kα^WT (Homo sapiens, UniProt P42336); assay: BLI membrane binding assay (immobilised liposomes); settings: for effect on P2pY-activated PI3Kα^WT membrane interaction (BLI wavelength shift): 1 µM PI3Kα^WT, 300 s, GSK2126458 4 µM, PIK-75 20 µM, 6 4 µM, 7 10 µM, GDC0032 10 µM, AS252424 10 µM, AMP-PNP 2 mM with 5 mM Mg2+; for Bmax (binding capacity) of PI3Kα^WT membrane interaction in presence of inhibitor: pY activated, inhibitor:protein 4:1, Mean ± SEM
T1 construct: using full length PI3Kα^WT and PI3Kα^H1047R up to 1 μM; made in house; host or cells: Sf9 insect cells (baculovirus)
Method: BLI is a label-free dip-and-read method that uses wavelength changes in reflected incidental white light to report on changes in thickness of the lipid vesicles immobilised on a biosensor from protein binding.
(§1) BLI experiments were carried out with a BLItz® System (ForteBIO) using aminopropylsilane (APS) biosensors. The APS biosensors (ForteBIO #18-5045) were hydrated for 15–20 min in either Tris or HEPES liposome buffer. The program option used was Advanced Kinetics. Liposome membrane preparation was performed using a 0.5 mg/ml liposome solution of PIP2: PS: PE: PC: C: S (Avanti polar lipids) in the mass percentages of 5: 20: 45: 15: 10: 5. Liposomes without PIP2 were prepared as PS: PE: PC: C: S in the percentage of […]. Liposomes without PS were prepared as PIP2: PE: PC: C: S in the percentage of 5: 65: 15: 10: 5. […] P2pY and inhibitor, or DMSO only were also added to achieve a final protein concentration of 200 μg/ml, a pY concentration of 10 μM, and total DMSO content of 3%. The mixture was incubated at room temperature for 10 min prior to the protein association experiments. The membrane coated biosensors were first dipped in Buffer D containing 3% DMSO for 30 s to set an initial baseline, and transferred to the protein in the presence or absence of inhibitor. Protein binding was followed for 300 s, and then the biosensors were dipped in Buffer D with 3% DMSO again for 300 s for protein dissociation. […] PI3Kα^M1043I used 0.125, 0.25, 0.5, 1 and 1.57 µM. The results of liposome loading and protein association were then analysed and graphed using GraphPad Prism 6.
Target sequence in this assay (P42336 whole entry): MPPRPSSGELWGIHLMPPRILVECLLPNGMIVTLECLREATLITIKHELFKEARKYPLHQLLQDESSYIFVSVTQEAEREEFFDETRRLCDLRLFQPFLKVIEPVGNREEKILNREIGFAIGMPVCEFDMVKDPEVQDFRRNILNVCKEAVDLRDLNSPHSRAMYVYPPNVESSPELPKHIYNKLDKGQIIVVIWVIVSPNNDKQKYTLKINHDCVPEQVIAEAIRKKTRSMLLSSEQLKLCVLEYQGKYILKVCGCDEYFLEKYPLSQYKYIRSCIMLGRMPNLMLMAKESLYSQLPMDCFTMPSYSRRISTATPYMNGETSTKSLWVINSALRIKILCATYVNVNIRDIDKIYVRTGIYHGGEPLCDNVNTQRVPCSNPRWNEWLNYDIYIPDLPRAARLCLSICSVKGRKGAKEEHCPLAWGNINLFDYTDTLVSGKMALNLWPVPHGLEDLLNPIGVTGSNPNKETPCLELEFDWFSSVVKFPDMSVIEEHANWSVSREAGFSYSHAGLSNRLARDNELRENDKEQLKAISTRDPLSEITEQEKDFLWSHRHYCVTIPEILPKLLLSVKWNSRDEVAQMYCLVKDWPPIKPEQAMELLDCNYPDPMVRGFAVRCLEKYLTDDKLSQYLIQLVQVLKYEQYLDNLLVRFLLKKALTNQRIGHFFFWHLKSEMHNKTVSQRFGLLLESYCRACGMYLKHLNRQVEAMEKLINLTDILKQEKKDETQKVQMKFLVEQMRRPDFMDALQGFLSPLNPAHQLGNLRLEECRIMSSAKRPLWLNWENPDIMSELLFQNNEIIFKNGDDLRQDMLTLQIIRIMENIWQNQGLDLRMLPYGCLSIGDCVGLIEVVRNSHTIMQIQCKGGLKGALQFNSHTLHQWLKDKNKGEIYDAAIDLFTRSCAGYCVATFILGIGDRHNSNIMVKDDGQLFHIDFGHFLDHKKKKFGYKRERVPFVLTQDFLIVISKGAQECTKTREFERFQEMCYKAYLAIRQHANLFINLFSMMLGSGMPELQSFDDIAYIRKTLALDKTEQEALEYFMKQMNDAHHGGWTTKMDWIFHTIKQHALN
Target sequence in this assay (P27986 2-724 partner): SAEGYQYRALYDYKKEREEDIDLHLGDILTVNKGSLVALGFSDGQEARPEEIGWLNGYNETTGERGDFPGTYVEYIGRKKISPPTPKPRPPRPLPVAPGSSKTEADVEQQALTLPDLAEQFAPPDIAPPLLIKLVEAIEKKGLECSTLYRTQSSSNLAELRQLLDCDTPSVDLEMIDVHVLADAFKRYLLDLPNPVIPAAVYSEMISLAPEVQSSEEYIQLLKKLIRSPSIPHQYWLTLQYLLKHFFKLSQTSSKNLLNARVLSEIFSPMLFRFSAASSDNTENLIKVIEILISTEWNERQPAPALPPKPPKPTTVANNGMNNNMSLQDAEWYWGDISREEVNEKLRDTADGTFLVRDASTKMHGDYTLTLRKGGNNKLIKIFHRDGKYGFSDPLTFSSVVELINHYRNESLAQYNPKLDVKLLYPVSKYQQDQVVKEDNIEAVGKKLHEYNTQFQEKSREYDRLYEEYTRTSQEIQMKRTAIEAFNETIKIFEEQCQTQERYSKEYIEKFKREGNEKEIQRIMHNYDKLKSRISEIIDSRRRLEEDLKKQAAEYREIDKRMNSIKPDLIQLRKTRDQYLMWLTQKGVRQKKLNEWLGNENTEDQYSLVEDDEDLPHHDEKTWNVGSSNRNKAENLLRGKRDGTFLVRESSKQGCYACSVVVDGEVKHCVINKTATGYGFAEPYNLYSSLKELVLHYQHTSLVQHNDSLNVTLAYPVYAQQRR

p110γ [2] = target: T2, p110γ (Homo sapiens, UniProt P48736); assay: PI3K HTRF lipid kinase IC50 determination; type: biochemical; settings: Table S1, this study; a = N=2 individual data shown, b = N=1; read-out: IC50 p110γ WT
T2 construct: made in house; host or cells: Sf9 insect cells (baculovirus)
Method: (§2) IC50 values were determined using the PI3K homogenous time-resolved fluorescence assay (Merck Millipore, #33-016) following the manufacturer's instructions as previously described. […] Data was graphed and analysed with Graphpad Prism 6, nonlinear regression with log(inhibitor) vs. response and constraints set at 0% and 100%.
(§3) (1 picture or pasted object on this page, not shown here)

PI3Kβ^WT (p110β/p85α) = target: T3, PI3Kβ^WT (p110β/p85α) (Homo sapiens, UniProt P42338); assay: PI3K HTRF lipid kinase IC50 determination; type: biochemical
T3 construct: made in house; host or cells: Sf9 insect cells (baculovirus)
Method: as §2, §3
(§4) Enzymes were used at PI3KαWT 40 ng/ml, PI3KβWT as either 400 ng/ml or 300 ng/ml,
(§5) and PI3K δWT was 65 ng/ml. Plates were read on a PHERAStar HTS microplate reader

PI3Kβ^WT = target: T4, PI3Kβ^WT (Homo sapiens, UniProt P42338); assay: BLI membrane binding assay (immobilised liposomes); settings: 4 µM inhibitor, 1 µM enzyme, +pY, 300 s
T4 construct: made in house; host or cells: Sf9 insect cells (baculovirus)
Method: (§6) Figure 6. […] The data are shown as Mean ± SD; PI3Kα^WT +pY n = 7; PI3Kα^WT +pY + GSK n = 5; PI3Kα^WT −pY n = 4; PI3Kα^WT −pY + GSK n = 3. (B) Effect of GSK on the BLI wavelength shift (λ) on membrane binding by PI3Kα^WT, the PI3Kα^E545K oncogenic mutant, class IA PI3Kβ^WT and class IA PI3Kδ^WT enzymes. In all experiments inhibitors were tested at 4 µM with 1 µM of the different enzymes and membrane binding was followed by BLI for 300 s.
as §1

PI3Kα^E545K = PI3Kα^E545K (Homo sapiens, UniProt P42336, E545K); assay: BLI membrane binding assay (immobilised liposomes); settings: 4 µM inhibitor, 1 µM enzyme, +pY, 300 s
Method: as §6, §1

PI3Kδ^WT = target: T5, PI3Kδ^WT (Homo sapiens, UniProt O00329); assay: BLI membrane binding assay (immobilised liposomes); settings: 4 µM inhibitor, 1 µM enzyme, +pY, 300 s
T5 construct: made in house; host or cells: Sf9 insect cells (baculovirus)
Method: as §6, §1

PI3Kα^WT [3] = target: T1, PI3Kα^WT; assay: FRET membrane binding assay (dansyl-PS liposomes); settings: P1pY-activated 0.5 μM PI3Kα^WT; inhibitor 31.25 nM to 2 μM
Target sequence in this assay (P42336 whole entry): as the sequence (P42336 whole entry) above
Target sequence in this assay (P27986 whole entry partner): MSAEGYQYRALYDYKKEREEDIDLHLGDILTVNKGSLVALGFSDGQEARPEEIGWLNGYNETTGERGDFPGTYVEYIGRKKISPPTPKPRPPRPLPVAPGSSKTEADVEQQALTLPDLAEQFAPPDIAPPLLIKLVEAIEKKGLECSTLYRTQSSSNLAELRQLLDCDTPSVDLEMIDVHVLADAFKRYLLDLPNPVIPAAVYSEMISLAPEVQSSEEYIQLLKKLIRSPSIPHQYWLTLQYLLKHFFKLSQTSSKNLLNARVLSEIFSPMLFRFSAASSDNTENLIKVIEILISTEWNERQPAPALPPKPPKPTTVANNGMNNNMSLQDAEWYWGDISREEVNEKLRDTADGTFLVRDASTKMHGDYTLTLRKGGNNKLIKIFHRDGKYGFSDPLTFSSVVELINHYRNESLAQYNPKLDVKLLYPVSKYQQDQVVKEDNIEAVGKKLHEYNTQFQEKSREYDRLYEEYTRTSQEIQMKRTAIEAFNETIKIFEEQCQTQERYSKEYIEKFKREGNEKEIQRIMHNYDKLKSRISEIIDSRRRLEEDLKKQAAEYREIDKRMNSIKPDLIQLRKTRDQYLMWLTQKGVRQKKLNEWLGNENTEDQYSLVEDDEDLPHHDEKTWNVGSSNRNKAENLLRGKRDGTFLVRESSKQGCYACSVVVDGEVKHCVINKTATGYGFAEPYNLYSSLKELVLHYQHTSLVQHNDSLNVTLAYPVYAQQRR
Method: The FRET-based assay directly monitors the interaction by measuring energy transfer from tryptophan residues in PI3Kα to dansyl-labelled phosphatidylserine (PS) lipids embedded within the synthetic membrane.
Liposomes were prepared with PIP2: phosphatidylserine (PS): phosphatidlyethanol (PE): phosphatidylcholine (PC): Cholesterol (C): Sphingomyelin (S): Dansyl PS (Avanti polar lipids) in the percentage of 5: 20: 35: 15: 10: 5: 10. Inhibitors were solubilised in 100% DMSO, and were diluted to 10% DMSO with Buffer C (30 mM HEPES pH 7.5, 50 mM NaCl), before being serially diluted to desired concentrations in 30 mM HEPES pH 7.5, 50 mM NaCl with 10% DMSO. […] Compounds were used at 5-fold the final concentration and 2 μl was added to 5 μl of enzyme in a 384-well plate, the plate was sealed and the mixture was allowed to equilibrate at room temperature for 10 min with shaking at 450 rpm. Liposomes were then added to the mixture to give a final liposome concentration of 50 μg/ml and a final reaction volume of 10 μl, and the plate was incubated at room temperature for 10 min with shaking at 450 rpm. […] The FRET signal was measured as I-I0 (intensity at 520 nm for protein and liposome solution — intensity at 520 nm for liposome only solution). […] The compound only I-I0 was then subtracted from the I-I0 of the protein-compound complex. […] Data were then graphed and analysed with GraphPad Prism 6.

PI3Kα^H1047R = target: T6, PI3Kα^H1047R (Homo sapiens, UniProt P42336, H1047R); assay: BLI membrane binding assay (immobilised liposomes); settings: pY activated, inhibitor:protein 4:1, Mean ± SEM
T6 construct: Full length PI3Kα^WT or PI3Kα^H1047R was diluted with Buffer D; made in house; host or cells: Sf9 insect cells (baculovirus)
Method: as §1

PI3Kα C420R mutant = PI3Kα C420R mutant (Homo sapiens, UniProt P42336, C420R); assay: BLI membrane binding assay, concentration response; settings: P2pY activated; protein to GSK2126458 ratio 1:4
Method: as §1, with “6. […]” for “6.”
(§7) membrane binding parameters. (A) Concentration response curves for PI3Kα oncogenic mutant proteins. Data is shown as the Mean ± SEM (number of biosensors for each data point is n≥3). A one site-specific binding model was used to fit the data. The […]
as §3

PI3Kα M1043I mutant = PI3Kα M1043I mutant (Homo sapiens, UniProt P42336, M1043I); assay: BLI membrane binding assay, concentration response; settings: P2pY activated; protein to GSK2126458 ratio 1:4
Method: as §1, with “6. […]” for “6.”
as §7, §3

PI3Kα G118D mutant = PI3Kα G118D mutant (Homo sapiens, UniProt P42336, G118D); assay: BLI membrane binding assay, concentration response; settings: P2pY activated; protein to GSK2126458 ratio 1:4
Method: as §1, with “6. […]” for “6.”
as §7, §3

PI3Kα G1049R mutant = PI3Kα G1049R mutant (Homo sapiens, UniProt P42336, G1049R); assay: BLI membrane binding assay, concentration response; settings: P2pY activated; protein to GSK2126458 ratio 1:4
Method: as §1, with “6. […]” for “6.”
as §7, §3

PI3Kα N345K mutant = PI3Kα N345K mutant (Homo sapiens, UniProt P42336, N345K); assay: BLI membrane binding assay, concentration response; settings: P2pY activated; protein to GSK2126458 ratio 1:4
Method: as §1, with “6. […]” for “6.”
as §7, §3

PI3Kα G106V mutant = PI3Kα G106V mutant (Homo sapiens, UniProt P42336, G106V); assay: BLI membrane binding assay, concentration response; settings: P2pY activated; protein to GSK2126458 ratio 1:4
Method: as §1, with “6. […]” for “6.”
as §7, §3

p110γ [4] = target: T2, p110γ; parameters: method as in earlier work; settings: Table S1, rows marked #; ref S1; read-out: IC50 p110γ WT; cited from earlier work
PI3Kα^WT (p110α/p85α) = target: T7, PI3Kα^WT (p110α/p85α) (Homo sapiens, UniProt P42336); assay: PI3K homogenous time-resolved fluorescence (HTRF) lipid kinase IC50 determination; type: biochemical; settings: HTRF assay using PIP2 as substrate; Mean ± SD, n=2; enzyme 40 ng/ml; read-out: IC50 PI3Kα (Table S3)
T7 construct: made in house; host or cells: Sf9 insect cells (baculovirus)
Method: as §2, §3, §4, §5

PI3Kδ^WT (p110δ/p85α) = target: T8, PI3Kδ^WT (p110δ/p85α) (Homo sapiens, UniProt O00329); assay: PI3K HTRF lipid kinase IC50 determination; type: biochemical; settings: HTRF assay using PIP2 as substrate; Mean ± SD, n=2; enzyme 65 ng/ml; read-out: IC50 PI3K (third column of Table S3, probably PI3Kδ)
T8 construct: made in house; host or cells: Sf9 insect cells (baculovirus)
Method: as §2, §3, §4, §5

T6 sequence (P42336 whole entry H1047R): as the sequence (P42336 whole entry) above, with H1047R counted along it
T6 sequence (P27986 whole entry partner): as the sequence (P27986 whole entry partner) above
T3 sequence (P42338 whole entry, species assumed): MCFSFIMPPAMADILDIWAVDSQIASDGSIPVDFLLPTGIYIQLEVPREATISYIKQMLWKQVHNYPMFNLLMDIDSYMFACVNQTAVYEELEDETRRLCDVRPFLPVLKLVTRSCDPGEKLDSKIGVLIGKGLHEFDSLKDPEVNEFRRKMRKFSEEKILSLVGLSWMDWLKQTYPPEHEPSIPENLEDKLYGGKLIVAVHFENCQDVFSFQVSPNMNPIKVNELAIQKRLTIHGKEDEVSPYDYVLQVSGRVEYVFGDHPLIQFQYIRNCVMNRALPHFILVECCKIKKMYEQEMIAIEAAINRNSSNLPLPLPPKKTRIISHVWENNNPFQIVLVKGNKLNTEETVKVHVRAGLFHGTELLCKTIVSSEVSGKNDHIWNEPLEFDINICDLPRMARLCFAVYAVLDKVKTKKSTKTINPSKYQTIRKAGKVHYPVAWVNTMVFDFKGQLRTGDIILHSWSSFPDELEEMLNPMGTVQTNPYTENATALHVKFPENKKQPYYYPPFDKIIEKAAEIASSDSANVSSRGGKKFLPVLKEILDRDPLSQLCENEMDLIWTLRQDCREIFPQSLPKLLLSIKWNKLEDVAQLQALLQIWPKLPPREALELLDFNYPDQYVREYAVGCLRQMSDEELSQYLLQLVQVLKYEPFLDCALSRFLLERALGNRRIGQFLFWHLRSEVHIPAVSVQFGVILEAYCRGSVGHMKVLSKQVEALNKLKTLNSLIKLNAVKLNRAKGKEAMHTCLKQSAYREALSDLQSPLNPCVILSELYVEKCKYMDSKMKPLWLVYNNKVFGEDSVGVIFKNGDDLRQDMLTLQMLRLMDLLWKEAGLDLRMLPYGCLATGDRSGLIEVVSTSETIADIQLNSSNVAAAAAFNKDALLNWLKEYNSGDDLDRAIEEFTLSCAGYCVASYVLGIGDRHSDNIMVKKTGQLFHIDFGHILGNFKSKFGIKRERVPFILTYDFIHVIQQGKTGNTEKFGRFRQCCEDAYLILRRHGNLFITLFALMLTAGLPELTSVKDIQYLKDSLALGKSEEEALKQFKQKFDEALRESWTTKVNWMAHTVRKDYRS
T3 sequence (P27986 whole entry partner, species assumed): as the sequence (P27986 whole entry partner) above
T2 sequence (P48736 whole entry, species assumed): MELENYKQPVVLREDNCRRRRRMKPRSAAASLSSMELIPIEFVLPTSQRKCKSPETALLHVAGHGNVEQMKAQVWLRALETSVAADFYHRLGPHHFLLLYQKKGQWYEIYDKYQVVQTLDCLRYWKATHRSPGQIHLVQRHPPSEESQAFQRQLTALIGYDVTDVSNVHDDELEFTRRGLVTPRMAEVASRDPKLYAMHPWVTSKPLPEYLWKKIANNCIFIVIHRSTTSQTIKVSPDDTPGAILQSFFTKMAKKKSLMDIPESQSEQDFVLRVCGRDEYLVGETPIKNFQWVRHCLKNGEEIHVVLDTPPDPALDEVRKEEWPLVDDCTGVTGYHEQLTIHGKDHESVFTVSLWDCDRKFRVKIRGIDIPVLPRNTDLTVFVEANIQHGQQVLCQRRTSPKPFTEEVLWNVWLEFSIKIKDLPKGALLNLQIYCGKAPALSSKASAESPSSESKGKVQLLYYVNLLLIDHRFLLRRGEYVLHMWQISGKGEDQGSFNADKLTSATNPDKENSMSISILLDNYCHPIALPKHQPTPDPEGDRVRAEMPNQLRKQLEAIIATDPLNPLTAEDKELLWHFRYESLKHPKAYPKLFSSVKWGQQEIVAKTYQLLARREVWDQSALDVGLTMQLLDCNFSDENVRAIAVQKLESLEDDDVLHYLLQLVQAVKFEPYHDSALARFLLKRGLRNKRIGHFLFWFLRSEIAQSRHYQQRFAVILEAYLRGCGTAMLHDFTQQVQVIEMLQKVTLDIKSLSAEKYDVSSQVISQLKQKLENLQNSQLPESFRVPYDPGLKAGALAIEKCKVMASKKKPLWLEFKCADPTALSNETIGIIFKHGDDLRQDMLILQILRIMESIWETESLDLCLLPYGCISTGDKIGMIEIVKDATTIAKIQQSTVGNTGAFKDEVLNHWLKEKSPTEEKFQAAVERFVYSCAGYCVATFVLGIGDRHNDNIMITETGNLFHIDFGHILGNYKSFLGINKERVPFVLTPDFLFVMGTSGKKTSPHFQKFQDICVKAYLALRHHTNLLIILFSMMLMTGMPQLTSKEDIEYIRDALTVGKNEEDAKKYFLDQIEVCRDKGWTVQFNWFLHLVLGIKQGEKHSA
T7 sequence (P42336 whole entry): as the sequence (P42336 whole entry) above
T7 sequence (P27986 whole entry partner): as the sequence (P27986 whole entry partner) above
PI3Kα G106V mutant, sequence (P42336 whole entry G106V): as the sequence (P42336 whole entry) above, with G106V counted along it
PI3Kα G106V mutant, sequence (P27986 whole entry partner): as the sequence (P27986 whole entry partner) above

## Nc1ncnc2c1ncn2[C@@H]1O[C@H](COP(=O)(O)OP(=O)(O)NP(=O)(O)O)[C@@H](O)[C@H]1O [AMP-PNP]
PI3Kα^WT [1]
  effect on P2pY-activated PI3Kα^WT membrane interaction (BLI wavelength shift): could promote the enzymes membrane interaction

## O=C1NC(=O)/C(=C/c2ccc(-c3ccc(F)cc3O)o2)S1 [AS252424]
PI3Kα^WT [1]
  effect on P2pY-activated PI3Kα^WT membrane interaction (BLI wavelength shift): some evidence of positive modulation

## Cc1nc(-c2cn3c(n2)-c2ccc(-c4cnn(C(C)(C)C(N)=O)c4)cc2OCC3)n(C(C)C)n1 [GDC0032]
p110γ [2]
  IC50: 4.6 nM and 3.2 nM
PI3Kβ^WT (p110β/p85α); Table S1, this study, a = N=2 individual data shown, b = N=1, read-out: IC50 PI3Kβ WT
  IC50: 64 nM and 113 nM

## COc1ncc(-c2ccc3nccc(-c4ccnnc4)c3c2)cc1NS(=O)(=O)c1ccc(F)cc1F [GSK2126458]
PI3Kβ^WT
  effect on PI3Kβ^WT membrane interaction (BLI): insensitive to GSK2126458
PI3Kα^E545K
  effect on PI3Kα^E545K membrane interaction (BLI): insensitive to regulation by GSK2126458
PI3Kδ^WT
  effect on PI3Kδ^WT membrane interaction (BLI): insensitive to GSK2126458
PI3Kα^WT [3]
  maximum reduction in FRET signal: 85%
PI3Kα^WT [1]; liposomes 0% PIP2 + 20% PS
  Bmax (binding capacity) of PI3Kα^WT membrane interaction in presence of inhibitor: 1.5 ± 0.1 λ nm
PI3Kα^WT [1]; liposomes 5% PIP2 + 20% PS
  Bmax (binding capacity) of PI3Kα^WT membrane interaction in presence of inhibitor: 1.9 ± 0.1 λ nm
PI3Kα^H1047R; liposomes 0% PIP2 + 20% PS
  Bmax (binding capacity) of PI3Kα^H1047R membrane interaction in presence of inhibitor: 4.3 ± 0.3 λ nm
PI3Kα^H1047R; liposomes 5% PIP2 + 0% PS
  Bmax (binding capacity) of PI3Kα^H1047R membrane interaction in presence of inhibitor: 4.6 ± 0.3 λ nm
PI3Kα^H1047R; liposomes 5% PIP2 + 20% PS
  Bmax (binding capacity) of PI3Kα^H1047R membrane interaction in presence of inhibitor: 5.0 ± 0.2 λ nm
PI3Kα C420R mutant
  effect on C420R membrane interaction (BLI): sensitive to GSK2126458, with effects on the membrane interaction capacity
PI3Kα M1043I mutant
  effect on M1043I membrane interaction capacity (BLI): also sensitive to GSK2126458
PI3Kα G118D mutant
  effect on G118D membrane interaction (BLI): changes in both capacity and affinity
PI3Kα G1049R mutant
  effect on G1049R membrane interaction capacity (BLI): also sensitive to GSK2126458
PI3Kα N345K mutant
  effect on N345K membrane interaction (BLI): sensitive to GSK2126458, with effects on the membrane interaction capacity
PI3Kα G106V mutant
  effect on G106V membrane interaction capacity (BLI): largest decrease in capacity of all those tested

## Cc1ccc([N+](=O)[O-])cc1S(=O)(=O)N(C)/N=C/c1cnc2ccc(Br)cn12 [PIK-75]
p110γ [4]
  IC50: 43 ± 21 nM

## FC(F)c1nc2ccccc2n1-c1nc(N2CCOCC2)nc(N2CCOCC2)n1 [ZSTK474, 2-(difluoromethyl)-1-[4,6-di(4-morpholinyl)-1,3,5-triazin-2-yl]-1H-benzimidazole]
PI3Kα^WT [3]
  maximum reduction in FRET signal: 50%

## COc1ncc(-c2ccc3cccc(-c4ccnnc4)c3c2)cc1NS(=O)(=O)c1ccc(F)cc1F [compound 6]
PI3Kα^WT (p110α/p85α)
  IC50: 460 ± 170 nM

## COc1ncc(-c2ccc(-c3cnc4c(c3)CN(C)C4=O)s2)cc1NS(=O)(=O)c1ccc(F)cc1F [compound 7]
PI3Kα^WT (p110α/p85α)
  IC50: 16800 ± 9100 nM
PI3Kδ^WT (p110δ/p85α)
  IC50: 8600 ± 2100 nM
PI3Kβ^WT (p110β/p85α); HTRF assay using PIP2 as substrate, Mean ± SD, n=2, enzyme 400 or 300 ng/ml, read-out: IC50 PI3K (second column of Table S3, probably PI3Kβ)
  IC50: 242000 ± 308000 nM
PI3Kα^WT [1]
  effect on P2pY-activated PI3Kα^WT membrane interaction (BLI wavelength shift): retained the ability to decrease
